In PubChem BioAssay (NCI):
“And” between values parts separate entries of the source, which are not always exact repeats. Equal values may be shown once.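 48-hour exposure; five concentrations; linearly interpolated endpoints. The concentration for 50% growth inhibition is given as GI50. TGI denotes the concentration required for complete inhibition of growth.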 Where a SMILES comes first, the peptide text is derived from it. The star is where a group is joined. Boc = CC(C)(C)OC(=O)*

Legend:
Test in all cases: NCI-60 cell line screen, 48 h
OVCAR-3 ovarian = system: OVCAR-3 ovarian
786-0 renal = system: 786-0 renal
SF-268 CNS = system: SF-268 CNS
SF-295 CNS = system: SF-295 CNS
CCRF-CEM leukemia = system: CCRF-CEM leukemia
SK-MEL-28 melanoma = system: SK-MEL-28 melanoma
SW-620 colon = system: SW-620 colon
TK-10 renal = system: TK-10 renal
MDA-MB-435 = system: MDA-MB-435
SK-MEL-5 melanoma = system: SK-MEL-5 melanoma

SMILES	TGI (OVCAR-3 ovarian)	TGI (786-0 renal)	TGI (SF-268 CNS)	TGI (SF-295 CNS)	TGI (CCRF-CEM leukemia)	TGI (SK-MEL-28 melanoma)	TGI (SW-620 colon)	TGI (TK-10 renal)	TGI (MDA-MB-435)	TGI (SK-MEL-5 melanoma)	GI50 (OVCAR-3 ovarian)	GI50 (786-0 renal)	GI50 (SF-268 CNS)	GI50 (SF-295 CNS)	GI50 (CCRF-CEM leukemia)	GI50 (SK-MEL-28 melanoma)	GI50 (SW-620 colon)	GI50 (TK-10 renal)	GI50 (MDA-MB-435)	GI50 (SK-MEL-5 melanoma)
CC12CCC3c4ccc(O)cc4CCC3C1C/C(=N\O)C2O (stereo unspecified)	> 100 µM	> 100 µM	> 100 µM	> 100 µM	> 100 µM	> 100 µM	> 100 µM	> 100 µM	> 100 µM	> 100 µM	–	–	–	–	–	–	–	–	–	–
CCc1ccc(/C=C/c2ccc(O)c3ncccc23)[n+](C)c1	> 23.4 µM	> 100 µM	> 100 µM	> 100 µM	> 100 µM	> 100 µM	> 100 µM	> 100 µM	> 100 µM	> 100 µM	671 nM	> 100 µM	749 nM	1.88 µM	4.95 µM	76.2 µM	4.47 µM	> 100 µM	4.49 µM	3.55 µM
CN(C)c1ncnc2c1ncn2CCn1cnc2c(N(C)C)ncnc21	> 100 µM	> 100 µM	> 100 µM	> 100 µM	> 100 µM	> 100 µM	> 100 µM	> 100 µM	> 100 µM	> 100 µM	–	–	–	–	–	–	–	–	–	–
COc1cc(/C=C/C(=O)c2cccc(-n3cc(-c4ccc(Cl)cc4)[nH]c3=O)c2)ccc1O	3.57 µM	6.69 µM	12.6 µM	31.8 µM	4.42 µM	4.18 µM	7.71 µM	> 65.5 µM	> 47.5 µM	5.22 µM	1560 nM	2.54 µM	2930 nM	8.08 µM	0.706 µM	2.07 µM	2.3 µM	6.6 µM	2.75 µM	1.88 µM
COC(=O)C(C)NC(=O)C(CCSC)NC(=O)C(Cc1ccccc1)NC(=O)OC(C)(C)C (stereo not drawn) (Boc-Phe-Met-Ala-OMe; configuration not given here)	52.7 µg/mL and > 100 µM	> 100 µM	> 100 µM	> 100 µM	–	> 100 µM	37.2 µg/mL and > 100 µM	–	> 100 µM	> 100 µM	26.6 µg/mL	43.3 µg/mL	42.3 µg/mL	–	2.63 µg/mL	38.9 µg/mL	18.2 µg/mL	4.41 µg/mL	39.2 µg/mL	–
Clc1nc(Cl)nc(Nc2cccc3ccccc23)n1	> 100 µM	> 100 µM	> 100 µM	> 100 µM	> 100 µM	> 100 µM	> 100 µM	> 100 µM	> 100 µM	> 100 µM	> 100000 nM	> 100 µM	> 100000 nM	64 µM	33.4 µM	> 100 µM	94.7 µM	> 100 µM	43.6 µM	67.3 µM
C=COC(=O)N[C@H]1CCc2cc(OC)c(OC)c(OC)c2-c2ccc(SC)c(=O)cc21	0.0311 µM	50.8 µM	44.9 µM	0.0769 µM	> 80.1 µM	> 96.3 µM	> 100 µM	86.5 µM	< 0.01 µM	0.097 µM	–	–	–	–	–	–	–	–	–	–
C=C1C(=O)OC2CC(C)C(C(O)CC(C)O)=CCC12 (stereo unspecified)	25.2 µM	30.2 µM	36.4 µM	> 100 µM	14.3 µM	23.1 µM	37.6 µM	23.3 µM	> 59.2 µM	41.2 µM	–	–	–	–	–	–	–	–	–	–
